# From patent US20180057507A1, “INHIBITORS OF DUAL LEUCINE ZIPPER (DLK) KINASE FOR THE TREATMENT OF DISEASE” (Board of Regents, The University of Texas System, priority 2016, published 2018)
# Biological target: T1, human DLK (Homo sapiens, UniProt Q12852)
# T1 sequence (Q12852 1-859): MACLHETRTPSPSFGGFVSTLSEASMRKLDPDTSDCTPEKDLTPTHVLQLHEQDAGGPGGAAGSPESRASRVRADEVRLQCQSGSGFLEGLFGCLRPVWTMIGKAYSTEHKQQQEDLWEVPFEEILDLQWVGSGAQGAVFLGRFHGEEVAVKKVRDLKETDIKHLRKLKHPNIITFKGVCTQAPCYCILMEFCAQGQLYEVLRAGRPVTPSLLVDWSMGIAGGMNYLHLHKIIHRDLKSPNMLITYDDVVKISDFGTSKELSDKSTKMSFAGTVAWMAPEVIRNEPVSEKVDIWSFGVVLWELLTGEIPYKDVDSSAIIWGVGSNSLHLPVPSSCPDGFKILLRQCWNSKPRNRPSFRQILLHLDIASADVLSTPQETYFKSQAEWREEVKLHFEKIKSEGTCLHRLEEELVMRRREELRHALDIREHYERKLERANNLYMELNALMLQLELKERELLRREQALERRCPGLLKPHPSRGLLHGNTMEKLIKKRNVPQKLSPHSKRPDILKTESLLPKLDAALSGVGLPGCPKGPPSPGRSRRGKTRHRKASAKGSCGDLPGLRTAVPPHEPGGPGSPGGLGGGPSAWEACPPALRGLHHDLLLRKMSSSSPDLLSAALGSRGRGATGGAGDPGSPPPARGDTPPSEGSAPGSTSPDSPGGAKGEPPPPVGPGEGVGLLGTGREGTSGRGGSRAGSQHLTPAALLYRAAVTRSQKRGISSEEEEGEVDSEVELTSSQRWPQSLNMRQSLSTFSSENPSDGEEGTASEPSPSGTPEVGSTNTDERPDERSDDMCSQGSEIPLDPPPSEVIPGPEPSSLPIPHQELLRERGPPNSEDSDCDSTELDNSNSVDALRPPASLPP
# Assay: DLK Kd Determinations (KINOMEscan KdELECT, DiscoveRx)
# Design: full length of human DLK (amino acids 1-859); host or cells: transiently transfected HEK293 cells; unpurified extract
# Conditions: fusion protein of full length human DLK (amino acids 1-859) and NFkB DNA binding domain; qPCR readout; duplicate
# Protocol: The DLK dissociation constants (Kd) have been determined in the KINOMEscan KdELECT Service at DiscoveRx.
# A fusion protein of full length of human DLK (amino acids 1-859) and the DNA binding domain of NFkB was expressed in transiently transfected HEK293 cells. From these HEK 293 cells, extracts were prepared in M-PER extraction buffer (Pierce) in the presence of Protease Inhibitor Cocktail Complete (Roche) and Phosphatase Inhibitor Cocktail Set II (Merck) per manufacturers' instructions. The DLK fusion protein was labeled with a chimeric double-stranded DNA tag containing the NFkB binding site (5′-GGGAATTCCC-3′) fused to an amplicon for qPCR readout, which was added directly to the expression extract (the final concentration of DNA-tag in the binding reaction is 0.1 nM).
# Streptavidin-coated magnetic beads (Dynal M280) were treated with a biotinylated small molecule ligand for 30 minutes at room temperature to generate affinity resins the binding assays. The liganded beads were blocked with excess biotin and washed with blocking buffer (SeaBlock (Pierce), 1% BSA, 0.05% Tween 20, 1 mM DTT) to remove unbound ligand and to reduce nonspecific binding.
# Extracts were used directly in binding assays without any enzyme purification steps at a ≧10,000-fold overall stock dilution (final DNA-tagged enzyme concentration <0.1 nM). Extracts were loaded with DNA-tag and diluted into the binding reaction in a two step process. First extracts were diluted 1:100 in 1× binding buffer (PBS/0.05% Tween 20/10 mM DTT/0.1% BSA/2 μg/ml sonicated salmon sperm DNA) containing 10 nM DNA-tag. This dilution was allowed to equilibrate at room temperature for 15 minutes and then subsequently diluted 1:100 in 1× binding buffer. Test compounds were prepared as 111× stocks in 100% DMSO. Kds were determined using an 11-point 3-fold compound dilution series with three DMSO control points. All compounds for Kd measurements are distributed by acoustic transfer (non-contact dispensing) in 100% DMSO. The compounds were then diluted directly into the assays such that the final concentration of DMSO was 0.9%. All reactions performed in polypropylene 384-well plates. Each was a final volume of 0.02 mL. Assays were incubated with shaking for 1 hour at room temperature. Then the beads were pelleted and washed with wash buffer (1×PBS, 0.05% Tween 20) to remove displaced kinase and test compound. The washed based were re-suspended in elution buffer (1×PBS, 0.05% Tween 20, 0.5 μM non-biotinylated affinity ligand) and incubated at room temperature with shaking for 30 minutes. The kinase concentration in the eluates was measured by qPCR. qPCR reactions were assembled by adding 2.5 μL of kinase eluate to 7.5 μL of qPCR master mix containing 0.15 μM amplicon primers and 0.15 μM amplicon probe. The qPCR protocol consisted of a 10 minute hot start at 95° C., followed by 35 cycles of 95° C. for 15 seconds, 60° C. for 1 minute.
# Test compounds were prepared as 111× stocks in 100% DMSO. Kds were determined using an 11-point 3-fold compound dilution series with three DMSO control points. All compounds for Kd measurements are distributed by acoustic transfer (non-contact dispensing) in 100% DMSO. The compounds were then diluted directly into the assays such that the final concentration of DMSO was 0.9%. The Kds were determined using a compound top concentration of 30,000 nM. Kd measurements were performed in duplicate.
# Binding constants (Kds) were calculated with a standard dose-response curve using the Hill equation: […]
# The Hill Slope was set to −1. Curves were fitted using a non-linear least square fit with the Levenberg-Marquardt algorithm (Levenberg, K., A method for the solution of certain non-linear problems in least squares, Q. Appl. Math. 2, 164-168 (1944)). See also Fabian, M. A. et al. A small molecule-kinase interaction map for clinical kinase inhibitors. Nat. Biotechnol. […]
row,SMILES,Kd
1,"CC(C)c1nc(-c2cnc(N)c(C(F)(F)F)c2)cn1C1COC1 [Example 29, 5-(2-isopropyl-1-(oxetan-3-yl)-1H-imidazol-4-yl)-3-(trifluoromethyl)pyridin-2-amine]",1000 nM
2,"CC(C)c1nc(-c2cnc(N)c(C(F)(F)F)c2)cn1C1CCC(O)CC1 (stereo not drawn) [Example 33, 4-(4-(6-amino-5-(trifluoromethyl)pyridin-3-yl)-2-isopropyl-1H-imidazol-1-yl)cyclohexan-1-ol]",130 nM
3,"CC(C)c1nc(-c2cnc(N)c(C(F)(F)F)c2)cn1CC1CCOCC1 [Example 34, 5-(2-isopropyl-1-((tetrahydro-2H-pyran-4-yl)methyl)-1H-imidazol-4-yl)-3-(trifluoromethyl)pyridin-2-amine]",870 nM
4,"CC(C)c1nc(-c2cnc(N)c(C(F)(F)F)c2)cn1C1CCN(C2COC2)C1 (stereo not drawn) [Example 36, 5-(2-isopropyl-1-(1-(oxetan-3-yl)pyrrolidin-3-yl)-1H-imidazol-4-yl)-3-(trifluoromethyl)pyridin-2-amine]",350 nM
5,"Nc1ncc(-c2cn(C3CC3)c(CC(F)(F)F)n2)cc1C(F)(F)F [Example 46, 5-(1-cyclopropyl-2-(2,2,2-trifluoroethyl)-1H-imidazol-4-yl)-3-(trifluoromethyl)pyridin-2-amine]",280 nM
6,"Nc1ncc(-c2cn(C3CC3)c(CC3CC3)n2)cc1C(F)(F)F [Example 47, 5-(1-cyclopropyl-2-(cyclopropylmethyl)-1H-imidazol-4-yl)-3-(trifluoromethyl)pyridin-2-amine]",120 nM
7,"Nc1ncc(-c2cn3c(n2)C(C2CC2)OCC3)cc1C(F)(F)F (stereo not drawn) [Example 49, 5-(8-cyclopropyl-5,6-dihydro-8H-imidazo[2,1-c][1,4]oxazin-2-yl)-3-(trifluoromethyl)pyridin-2-amine]",1200 nM
8,"CC(C)c1nc(-c2cnc(N)c(OC(F)F)c2)cn1[C@H]1[C@@H]2CNC[C@@H]21 [Example 50, 5-(1-((1R,5S,6s)-3-azabicyclo[3.1.0]hexan-6-yl)-2-isopropyl-1H-imidazol-4-yl)-3-(difluoromethoxy)pyridin-2-amine]",170 nM
9,"Nc1ncc(-c2cn([C@H]3[C@@H]4CN(C5COC5)C[C@@H]43)c(CC(F)(F)F)n2)cc1C(F)(F)F [Example 52, 5-(1-((1R,5S,6s)-3-(oxetan-3-yl)-3-azabicyclo[3.1.0]hexan-6-yl)-2-(2,2,2-trifluoroethyl)-1H-imidazol-4-yl)-3-(trifluoromethyl)pyridin-2-amine]",100 nM
10,"CC(=O)N1C[C@@H]2[C@H](C1)[C@H]2n1cc(-c2cnc(N)c(OC(F)(F)F)c2)nc1C1CC1 [Example 54, 1-((1R,5S)-6-(4-(6-amino-5-(trifluoromethoxy)pyridin-3-yl)-2-cyclopropyl-1H-imidazol-1-yl)-3-azabicyclo[3.1.0]hexan-3-yl)ethan-1-one]",110 nM
11,"COCCN1C[C@@H]2[C@H](C1)[C@H]2n1cc(-c2cnc(N)c(OC(F)F)c2)nc1C(C)C [Example 55, 3-(difluoromethoxy)-5-(2-isopropyl-1-((1R,5S,6s)-3-(2-methoxyethyl)-3-azabicyclo[3.1.0]hexan-6-yl)-1H-imidazol-4-yl)pyridin-2-amine]",240 nM
12,"Nc1ncc(-c2cn([C@H]3[C@@H]4CN(C5COC5)C[C@@H]43)c(C3CCC3)n2)cc1OC(F)(F)F [Example 56, 5-(2-cyclobutyl-1-((1R,5S,6s)-3-(oxetan-3-yl)-3-azabicyclo[3.1.0]hexan-6-yl)-1H-imidazol-4-yl)-3-(trifluoromethoxy)pyridin-2-amine]",280 nM
13,"CC(C)c1nc(-c2cnc(N)c(OC(F)(F)F)c2)cn1[C@H]1[C@@H]2CNC[C@@H]21 [Example 58, 5-(1-((1R,5S,6s)-3-azabicyclo[3.1.0]hexan-6-yl)-2-isopropyl-1H-imidazol-4-yl)-3-(trifluoromethoxy)pyridin-2-amine]",94 nM
14,"CC(C)c1nc(-c2cnc(N)c(OC(F)F)c2)cn1[C@H]1[C@@H]2CN(C3CCOCC3)C[C@@H]21 [Example 60, 3-(difluoromethoxy)-5-(2-isopropyl-1-((1R,5S,6s)-3-(tetrahydro-2H-pyran-4-yl)-3-azabicyclo[3.1.0]hexan-6-yl)-1H-imidazol-4-yl)pyridin-2-amine]",180 nM

# More lines, in order of falling Kd, values ahead:
row,Kd,SMILES
1,1500 nM,"CC(C)c1nc(-c2cnc(N)c(C(F)(F)F)c2)cn1Cc1ccccn1 [Example 30, 5-(2-isopropyl-1-(pyridin-2-ylmethyl)-1H-imidazol-4-yl)-3-(trifluoromethyl)pyridin-2-amine]"
2,940 nM,"CC(C)c1nc(-c2cnc(N)c(C(F)(F)F)c2)cn1Cc1cccnc1 [Example 32, 5-(2-isopropyl-1-(pyridin-3-ylmethyl)-1H-imidazol-4-yl)-3-(trifluoromethyl)pyridin-2-amine]"
3,180 nM,"Nc1ncc(-c2cn([C@H]3[C@@H]4CN(C5COC5)C[C@@H]43)c(C3CCC3)n2)cc1OC(F)F [Example 57, 5-(2-cyclobutyl-1-((1R,5S,6s)-3-(oxetan-3-yl)-3-azabicyclo[3.1.0]hexan-6-yl)-1H-imidazol-4-yl)-3-(difluoromethoxy)pyridin-2-amine]"
4,160 nM,"CC(C)c1nc(-c2cnc(N)c(C(F)(F)F)c2)cn1CCC1CCOCC1 [Example 35, 5-(2-isopropyl-1-(2-(tetrahydro-2H-pyran-4-yl)ethyl)-1H-imidazol-4-yl)-3-(trifluoromethyl)pyridin-2-amine]"
5,130 nM,"Nc1ncc(-c2cn([C@H]3[C@@H]4CN(C5COC5)C[C@@H]43)c(C3CCC3)n2)cc1C(F)(F)F [Example 51, 5-(2-cyclobutyl-1-((1R,5S,6s)-3-(oxetan-3-yl)-3-azabicyclo[3.1.0]hexan-6-yl)-1H-imidazol-4-yl)-3-(trifluoromethyl)pyridin-2-amine]"
6,92 nM,"CC(C)c1nc(-c2cnc(N)c(C(F)(F)F)c2)cn1C1CC(N2CCOCC2)C1 (stereo not drawn) [Example 37, 5-(2-isopropyl-1-(3-morpholinocyclobutyl)-1H-imidazol-4-yl)-3-(trifluoromethyl)pyridin-2-amine]"
7,50 nM,"Nc1ncc(-c2cn([C@H]3[C@@H]4CNC[C@@H]43)c(CC3CC3)n2)cc1C(F)(F)F [Example 59, 5-(1-((1R,5S,6s)-3-azabicyclo[3.1.0]hexan-6-yl)-2-(cyclopropylmethyl)-1H-imidazol-4-yl)-3-(trifluoromethyl)pyridin-2-amine]"
